The values that follow come from PubChem BioAssay (NCI).

Test systems include A549 NSCLC; HCT-15 colon; HT29 colon; KM12 colon; NCI-H226 lung; RXF 393 renal; SNB-19 CNS; SNB-75 CNS; U251 CNS; UACC-62 melanoma.
Common to all, as to test: NCI-60 cell line screen, 48 h

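Values below derive from 48-hour exposures of cells grown in 96-well plates, with endpoints linearly interpolated between the two concentrations bracketing the appropriate inhibition level. The concentration for 50% growth inhibition is given as GI50. Definition used: TGI = concentration required for complete inhibition of growth.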 Where only a bound is given, the exact number is not on record here.

Turning to `OCC1OC(OC2(CO)OC(CO)C(O)C2O)C(O)C(O)C1O` (centres undefined), the GI50 in the test on A549 NSCLC, in the test with HCT-15 colon, in the test with HT29 colon, with KM12 colon, in the test with NCI-H226 lung and in the test with RXF 393 renal was greater than 100 µM each time. The GI50 in the test with SNB-19 CNS, in the test on SNB-75 CNS, in the test on U251 CNS and in the test with UACC-62 melanoma was greater than 100 µM throughout. In addition, the TGI in the test on A549 NSCLC, in the test on HCT-15 colon, with HT29 colon, in the test on KM12 colon, with NCI-H226 lung and in the test with RXF 393 renal was greater than 100 µM each time. For the same compound, the TGI in the test with SNB-19 CNS, in the test with SNB-75 CNS, in the test with U251 CNS and with UACC-62 melanoma was greater than 100 µM in each case.

Consider `O=C1C=CC2(CCC23C=CC(=O)O3)O1` (centres undefined), for which the TGI with A549 NSCLC, with HCT-15 colon, in the test with HT29 colon, with KM12 colon, in the test with NCI-H226 lung and in the test with RXF 393 renal was greater than 100 µM in each case. Besides, the TGI in the test with SNB-19 CNS, with SNB-75 CNS, in the test with U251 CNS and with UACC-62 melanoma was greater than 100 µM throughout.

As to `CCC(Oc1ccc(OC)c2c1C(=O)CCC2)C(=O)O` (centres undefined), the TGI with A549 NSCLC, in the test with HCT-15 colon, in the test with HT29 colon, in the test on KM12 colon, in the test on NCI-H226 lung and with RXF 393 renal was greater than 100 µM throughout. Further, the TGI with SNB-19 CNS, with SNB-75 CNS, in the test with U251 CNS and in the test with UACC-62 melanoma was greater than 100 µM each time.

Take `Nc1c(C(=O)Nc2ccccc2)sc2nc3c(cc12)C(=O)CCC3`: the GI50 in the test on A549 NSCLC is 0.436 µM; with HCT-15 colon it was 0.407 µM; in the test with HT29 colon, 0.354 µM; in the test on KM12 colon, 0.323 µM; in the test with NCI-H226 lung it was 3.91 µM; in the test on RXF 393 renal, 0.19 µM. For the same compound, the GI50 in the test on SNB-19 CNS is 0.73 µM; in the test with SNB-75 CNS, 0.494 µM; in the test with U251 CNS it was 0.486 µM; in the test on UACC-62 melanoma it was 0.557 µM. Also, the TGI in the test with A549 NSCLC is greater than 100 µM; in the test with HCT-15 colon, greater than 100 µM; in the test with KM12 colon, greater than 100 µM; in the test with NCI-H226 lung, greater than 100 µM; in the test on RXF 393 renal, 0.619 µM; in the test on SNB-19 CNS, greater than 100 µM. Moreover, the TGI in the test with SNB-75 CNS was greater than 88.7 µM; in the test on U251 CNS, greater than 41.9 µM; with UACC-62 melanoma, greater than 100 µM.

For the compound `COc1ccccc1/C=C(\NC(=O)c1ccccc1)c1nc2ccc(Cl)cc2[nH]1`, the TGI with A549 NSCLC is 70.2 µM; with HCT-15 colon, greater than 100 µM; with HT29 colon, greater than 100 µM; in the test on KM12 colon it was greater than 100 µM; with NCI-H226 lung, 58 µM; with RXF 393 renal it was greater than 100 µM. The TGI with SNB-19 CNS was greater than 100 µM; with SNB-75 CNS, 70.7 µM; in the test on U251 CNS, greater than 100 µM; in the test on UACC-62 melanoma, 55.3 µM.
